Test results published in patent US20140056811A1, “NEW CELL-PENETRATING PEPTIDES AND USES THEREOF” (COMPUGEN LTD., priority 2010, published 2014).
Entries after “also recorded” stand apart in the source; their conditions may differ. Peptide text beside a SMILES is read from it. * marks the point of attachment. 5FAM = O=C1OC2(c3ccc(O)cc3Oc3cc(O)ccc32)c2ccc(C(=O)*)cc21; FAM = carboxyfluorescein

Tests used:
Format in all cases: cell-based
A549 cells = assay: FACS binding analysis of CPP conjugated liposomes; details: FAM-CPP conjugated to hyaluronan coated liposomes, 30 minutes on ice
Protocol: Liposome preparation was carried out as described in Peer D., at al., 2008, Science 319, 627-630, Briefly, liposomes (60% soy-pc, 20% DPPE 20% cholesterol mol/mol) were prepared at a concentration of 40 mg/ml (Soy PC-273 mg, DPPE-81.2 mg Cholesterol-145.4 mg in 10 ml of ethanol). After a complete dissolvent, the solution was evaporated in a rotary evaporator (BUCHI R-210). Following the evaporation the dry lipid film was hydrated in 10 ml of HEPES (PH 7.4) and the solution was shaken (2 hr 65° C.). The MLV were reduced to ULV with an average size of ˜150 nm (Zetasizer Nano ZS system) by passing them through an extruder (Lipex) using filtration membranes in a serially manner ([…]). Average zeta potential of the ULV was −3 mV (Zetasizer Nano ZS system).
Hyaluronan (HA) (700 KDa Lifecore) was dissolved in 0.2M MES buffer (PH 5.5) to a final concentration of 5 mg/ml. HA was activate with EDC and solfo-NHS at a molar ratio of 1:1:6. After 30 min of activation the liposomes were added and the pH was adjusted to 7.4. The solution was incubated at room temp (2 hr). The free HA was removed by 3 repeated ultracentrifugations. The resulting HA-ULV's were at an average of 175 nm in size.
CPPs S22 (SEQ ID NO: 1), S24 (SEQ ID NO: 2) and S8 (SEQ ID NO: 6) and Control CPPs; 9R with additional C-terminal Lysine, 9R-K (SEQ ID NO: 40) and N2 (SEQ ID NO: 22), were dissolved to a concentration of 1 mg/ml. HA-ULV's (250 μl of 40 mg/ml) were activated with 1 ml of 0.4M EDC and 1 ml of 0.4 mM solfo-NHS. After 30 min the activated liposomes were divided into 5 test tubes (250 μl per each tube) and a different CPP (50 μl) was added. After incubation at RT for 2 hr, the CPP-HA-ULVS were dialyzed over night with PBS buffer (0.5 L/3 buffer changeovers) to remove unbound CPP, using dialysis bags with a cutoff 3500 Da.
For binding analysis, 3.5×10^5 cells were trypsinized, spin down, re-suspended with FACS buffer (1% fetal bovine serum in 1×PBS), incubated for 30 minutes on ice with different CPPs (Conjugated to FAM fluorophore) and washed with 1 ml FACS buffer.

A549 cell line = assay: Internalization assay of CPP conjugated liposomes by confocal microscopy; details: CPP conjugated to liposomes, 50 μl, 1 hour, 37° C.
Protocol: (§1) Internalization assay was performed in 24 well plates. A549 or NRK cells were seeded on cover slips in RPMI or DMEM medium respectively, supplemented with antibiotics, L-Glutamine and 10% fetal calf serum (Biological industries, Beit Haemek).
(§2) For membrane staining, cells were stained with CellTracker™ DilC18 (5)-DS solution (Invitrogen, Carlsbad, Calif., USA), diluted 1:5000 with PBS. For internalization experiments involve NPs Concanavalin A, Alexa fluor 647 conjugate (10 μg/ml) (C21421, Invitrogen,) was used to label cell membrane. For nuclei staining, cells were stained with Hoechst (1:10,000 in PBS) (33258, Sigma). Cells were exposed to CPPs only (10 μM) or CPP-liposome complex (50 μl from stock, according to preparation method) or liposome only (50 μl from the prepared liposomal stock solution) in medium without serum for a period of 1 hour at 37° C. in a humidified atmosphere with 5% CO2. Subsequently, the cells were washed twice using cold PBS, fixated with 4% Paraformaldehyde (PFA) and washed again with cold PBS. Membrane and nuclei staining were preformed after fixation. The cells were mounted by fluorescent mounting medium (Golden Bridge international, Mukilteo, Wash., USA) and fluorescent was measured using Andor Spinning disc confocal microscope and the Meta 510 Zeiss LSM confocal microscope. Laser beams at 405, 488, 561 and 650 nm were used for UV, FAM, Rhodamine, Concavaline A and CellTracker™, fluorophores excitation respectively. Serial optical sections of the cells were recorded for each treatment and the images were processed using Zeiss LSM Image browser software.

HeLa cells [1] = assay: Flow cytometry (FACS) quantification of cellular uptake of FAM labeled peptides; details: FAM labeled peptide, 10 uM, 37° C., 1 hour, average of a number of experiments
Protocol: To determine the efficiency of peptide loading, HeLa cells (ATCC number CCL-2TM (Manassas, Va.) grown in DMEM medium with stabilized glutamine supplemented with 10% fetal calf serum (Biological Industries, Beit Haemek, Israel), were seeded at a density of 20,000 per well in 96 U shape-well plates (Nunc A/S, Roskilde, Denmark) in serum containing DMEM (D-Mem W/O Na Pyr, product number 41965039).
After 24 hours, the cells were washed twice with 300 μL serum free OptiMEM (Reduced Serum Media, buffered with HEPES and sodium bicarbonate and supplemented with hypoxanthine, thymidine, sodium pyruvate, L-glutamine, trace elements and growth factors) medium and incubated in 50 μL serum free OptiMEM, containing peptides in the appropriate concentrations for 1 hour at 37° C. Each condition was tested in triplicates. After incubation, cells were washed with serum free medium, detached by trypsinization for 5 minutes, suspended in ice-cold PBS (phosphate buffered saline) containing 0.1% (w/v) BSA (bovine serum albumin), and measured immediately by flow cytometry (BD FACS Calibur System, Becton Dickinson, Heidelberg, Germany). The fluorescence of approximately 10,000 vital cells was acquired and gated based on sideward and forward scatter. Peptides used as positive controls were Tat(47-57) (SEQ ID NO:19; Jain M, et al., Cancer Res. 2005 Sep. 1; 65(17):7840-6), 9R (SEQ ID NO:21; Mueller J, et al., Bioconjug Chem. 2008 December; 19(12):2363-74) and penetratin (SEQ ID NO:20; Mueller J, et al., Bioconjug Chem. 2008 December; 19(12):2363-74). Negative control peptides N2 (SEQ ID NO:22) and N5 (SEQ ID NO:23) were designed according to Handbook [Cell-Penetrating Peptides, Second Edition, Edited by Ülo Langel, CRC Press 2007, Print ISBN: 978-0-8493-5090-0] and [US Patent Application 20080234183].

HeLa cells [2] = assay: Confocal microscopy of peptide membrane penetration and cellular distribution; details: 5 uM, 37° C.
Protocol: To determine qualitative validation of peptide membrane penetration, HeLa cells from 5 ml of confluent T75 flask were seed in 12 well plate at 10×10^4 cells/mL in 0.5 ml DMEM supplied with 10% Fetal Calf Serum. […] DiD (DiD-[1,1′-Dioctadecyl-3,3,3′,3′-tetramethylindodicarbocyanine iodide] Lipophilic membrane tracer) (5 ug/ml) was added to each well and incubated for 5 min at 4° C., washed twice with cold PBS and fixed with 3.7% PFA 20′ RT. Cells were rinsed with PBS and mounted on slides for confocal microscopy analysis.

[3] = In vitro cytotoxicity by LDH (lactate dehydrogenase) analysis; details: human
Protocol: In order to assess the in vitro cytotoxicity of the peptides, an LDH (lactate dehydrogenase) analysis was carried out, using LDH kit (Promega G1782), according to manufacturer instructions.
Briefly, HeLa cells from 5 ml of confluent T75 flask were seed in 96 well plate at 10×10^4 cells/mL in 0.1 ml DMEM supplied with 10% Fetal Calf Serum. After 24 hrs incubation with growth medium, wells were replaced with Serum Free growth medium for 24 hrs, and then cells were washed with OptiMEM and replaced with 0.1 ml peptide solution at 10 uM for 1 h at 37° C. 50 ul of supernatant were transferred to the new plate and detected according to Cyto Tox 96, Non Radioactive cytotoxicity assay, (LDH kit Promega G1782). Table 5 presents the results of in vitro cytotoxicity measurements by LDH for S22, S24, S36 and S40 peptides and two positive control peptides; Tat(47-57) and R9. LDH experiment was done with fluorescent labeled (5-FAM) peptides in concentration of […] and the % of cytotoxicity was measured by LDH levels.

NRK cell line = assay: Internalization assay of CPP conjugated liposomes by confocal microscopy; details: CPP conjugated to liposomes, 50 μl, 1 hour, 37° C.
Protocol: as §1, §2

Compound	binding to A549 cells (FACS) (A549 cells)	internalization into A549 cell line (confocal) (A549 cell line)	Geometric mean of FL1 intensity (HeLa cells [1])	accumulation of FAM labeled peptide inside the cell (confocal images) (HeLa cells [2])	cytotoxicity at 1 h, 10 µM [3] [%]	internalization into NRK cell line (confocal) (NRK cell line)
VATIKSVSFYTRK [N2, negative control peptide, reference compound]	lower binding effect	did not show internalization effect	–	–	–	–
RRRRRRRRRK [9R-K, positive control, 9R with additional C-terminal Lysine, reference compound]	high binding levels	–	–	–	–	–
CC[C@H](C)[C@H](NC(=O)[C@H](CCCNC(=N)N)NC(=O)[C@H](CCCNC(=N)N)NC(=O)[C@H](CS)NC(=O)[C@@H](NC(=O)[C@H](CCCCN)NC(=O)[C@H](CCCCN)NC(=O)c1ccc2c(c1)C(=O)OC21c2ccc(O)cc2Oc2cc(O)ccc21)[C@@H](C)O)C(=O)N[C@@H](CC(N)=O)C(=O)N[C@@H](Cc1ccc(O)cc1)C(=O)N[C@@H](CS)C(=O)N[C@@H](C)C(=O)N[C@@H](CC(C)C)C(=O)N[C@@H](CC(N)=O)C(=O)N[C@@H](CCCCN)C(N)=O [S22, KKTCRRINYCALNK] (5FAM-KKTCRRINYCALNK-NH2; N-terminus and C-terminus assumed)	high binding levels	significant internalization effect	206.4275	strong cell membrane penetration capability; also recorded: efficient cellular uptake and intracellular accumulation	7	weak internalization; also recorded: better penetration into NRK in a comparison with peptide only
KKLALYLLLAL ({FAM}-KKLALYLLLAL-NH2) [S67]	–	–	27.9	–	–	–
KPSARMLLLKGFGK [S8]	lower binding effect	–	52.29	–	–	weak internalization
